Data reported in article PMC9090415, “Discovery of small molecule inhibitors of Plasmodium falciparum apicoplast DNA polymerase” (Journal of Enzyme Inhibition and Medicinal Chemistry, 2022).

Molecular target: P. falciparum apicoplast DNA polymerase (Pf-apPOL) (Plasmodium falciparum, UniProt Q8ILY1)
Experiment: Fluorescence-based high-throughput DNA polymerase assay (molecular beacon), primary screen and dose-response
Assay type: biochemical
Settings: for DNA Pol: 90 min, 10 µM; for % inhibition apPOL 180' 2.5 / % inhibition apPOL 180' 5 / % inhibition apPOL 180' 10 / % inhibition apPOL 180' 20 / % inhibition apPOL 180' 40 / % inhibition apPOL 180' 80: read at 180'
Procedure, shortened: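 Single-point screening used 10 µM compound with 20 nM polymerase, 20 nM hairpin substrate and 6 µM dNTPs for 90 min at 25 °C. Confirmatory titrations (2.5–80 µM) followed fluorescence at three times, and IC50 was derived from a fit including a cooperativity term n.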

[1] = first dose-response set, concentration 10

Sequence of P. falciparum apicoplast DNA polymerase (Pf-apPOL) (Q8ILY1 entry or part of it): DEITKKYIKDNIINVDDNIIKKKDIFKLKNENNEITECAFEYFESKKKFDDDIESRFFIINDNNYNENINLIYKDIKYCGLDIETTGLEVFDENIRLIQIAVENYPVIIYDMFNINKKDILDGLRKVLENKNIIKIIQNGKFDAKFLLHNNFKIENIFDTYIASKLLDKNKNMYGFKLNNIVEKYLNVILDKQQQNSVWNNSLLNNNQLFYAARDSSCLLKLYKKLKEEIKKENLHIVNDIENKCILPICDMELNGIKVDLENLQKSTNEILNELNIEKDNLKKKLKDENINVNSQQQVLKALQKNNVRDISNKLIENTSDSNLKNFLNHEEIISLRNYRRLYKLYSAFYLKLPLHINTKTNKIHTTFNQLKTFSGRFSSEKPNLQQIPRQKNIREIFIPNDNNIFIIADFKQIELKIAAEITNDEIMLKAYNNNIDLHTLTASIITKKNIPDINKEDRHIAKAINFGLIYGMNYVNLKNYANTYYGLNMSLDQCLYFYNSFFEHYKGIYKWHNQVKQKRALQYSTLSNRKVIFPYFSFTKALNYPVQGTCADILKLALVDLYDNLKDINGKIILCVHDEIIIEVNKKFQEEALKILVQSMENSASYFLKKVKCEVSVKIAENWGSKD

O=[N+]([O-])c1ccc(/C=C/c2ccc3ccccc3n2)o1 [Molecule 21, O=N(=O)c1ccc(o1)/C=C/c1ccc2c(n1)cccc2]
DNA Pol ("DNA Pol" of the 186 hits list (screen value)): 59
% inhibition Apo pol 10' (DRC-1, concentration 2.5): 21.0135%
% inhibition Apo pol 10' (DRC-1, concentration 5): 49.9982%
% inhibition Apo pol 10' (DRC-1, concentration 10): 70.3482%
% inhibition Apo pol 10' (DRC-1, concentration 20): 76.4404%
% inhibition Apo pol 10' (DRC-1, concentration 40): 64.8126%
% inhibition Apo pol 10' (DRC-1, concentration 80): 40.0961%
% inhibition Apol 90' (DRC-1, concentration 2.5): 13.3257%
% inhibition Apol 90' (DRC-1, concentration 5): 34.694%
% inhibition Apol 90' (DRC-1, concentration 10): 59.8691%
% inhibition Apol 90' (DRC-1, concentration 20): 78.6772%
% inhibition Apol 90' (DRC-1, concentration 40): 78.7593%
% inhibition Apol 90' (DRC-1, concentration 80): 64.7186%
% inhibition apPOL 180' (DRC-1, concentration 2.5): 4.404%
% inhibition apPOL 180' (DRC-1, concentration 5): 20.9702%
% inhibition apPOL 180' (DRC-1, concentration 10): 46.0127%
% inhibition apPOL 180' (DRC-1, concentration 20): 74.6169%
% inhibition apPOL 180' (DRC-1, concentration 40): 82.0338%
% inhibition apPOL 180' (DRC-1, concentration 80): 72.6505%
% inhibition Apo pol 5' (DRC-2, concentration 2.5): 37%
% inhibition Apo pol 5' (DRC-2, concentration 5): 38%
% inhibition Apo pol 5' (DRC-2, concentration 10): 41%
% inhibition Apo pol 5' (DRC-2, concentration 20): 27%
% inhibition Apo pol 5' (DRC-2, concentration 40): 16%
% inhibition Apo pol 5' (DRC-2, concentration 80): -66%
% inhibition Apol 40' (DRC-2, concentration 2.5): 44%
% inhibition Apol 40' (DRC-2, concentration 5): 51%
% inhibition Apol 40' (DRC-2, concentration 10): 63%
% inhibition Apol 40' (DRC-2, concentration 20): 61%
% inhibition Apol 40' (DRC-2, concentration 40): 54%
% inhibition Apol 40' (DRC-2, concentration 80): 10%
% inhibition ApPOL 90' (DRC-2, concentration 2.5): 41%
% inhibition ApPOL 90' (DRC-2, concentration 5): 50%
% inhibition ApPOL 90' (DRC-2, concentration 10): 65%
% inhibition ApPOL 90' (DRC-2, concentration 20): 67%
% inhibition ApPOL 90' (DRC-2, concentration 40): 62%
% inhibition ApPOL 90' (DRC-2, concentration 80): 30%
% inhibition apPOL 180' (DRC-2, concentration 2.5): 29%
% inhibition apPOL 180' (DRC-2, concentration 5): 39%
% inhibition apPOL 180' (DRC-2, concentration 10): 61%
% inhibition apPOL 180' (DRC-2, concentration 20): 71%
% inhibition apPOL 180' (DRC-2, concentration 40): 69%
% inhibition apPOL 180' (DRC-2, concentration 80): 50%
DNA Pol (primary screen value, DNA Pol): 59

CCCc1ccc(Oc2coc3cc(OC)ccc3c2=O)cc1 [KU0193249]
DNA Pol (186 hits, DNA Pol (screen value), unit not given): 73
DNA Pol ('DNA Pol' (screen value), unit not given): 73
% inhibition Apo pol 10' 2.5 (DRC-1, read at 10', concentration 2.5): 7.919%
% inhibition Apo pol 10' 5 (DRC-1, read at 10', concentration 5): 6.719%
% inhibition Apo pol 10' 10 (DRC-1, read at 10', concentration 10): 11.6444%
% inhibition Apo pol 10' 20 (DRC-1, read at 10', concentration 20): 12.8685%
% inhibition Apo pol 10' 40 (DRC-1, read at 10', concentration 40): 28.2048%
% inhibition Apo pol 10' 80 (DRC-1, read at 10', concentration 80): 56.0479%
% inhibition Apol 90' 2.5 (DRC-1, read at 90', concentration 2.5): 14.2398%
% inhibition Apol 90' 5 (DRC-1, read at 90', concentration 5): 11.6391%
% inhibition Apol 90' 10 (DRC-1, read at 90', concentration 10): 17.4321%
% inhibition Apol 90' 20 (DRC-1, read at 90', concentration 20): 14.1885%
% inhibition Apol 90' 40 (DRC-1, read at 90', concentration 40): 28.8567%
% inhibition Apol 90' 80 (DRC-1, read at 90', concentration 80): 54.3218%
% inhibition apPOL 180' 2.5 (DRC-1, concentration 2.5): 21.2124%
% inhibition apPOL 180' 5 (DRC-1, concentration 5): 19.9497%
% inhibition apPOL 180' 10 (DRC-1, concentration 10): 25.9143%
% inhibition apPOL 180' 20 (DRC-1, concentration 20): 21.3211%
% inhibition apPOL 180' 40 (DRC-1, concentration 40): 35.4665%
% inhibition apPOL 180' 80 (DRC-1, concentration 80): 56.5719%
% inhibition Apo pol 5' (DRC-2, concentration 2.5): 8%
% inhibition Apo pol 5' (DRC-2, concentration 5): 12%
% inhibition Apo pol 5' (DRC-2, concentration 20): 17%
% inhibition Apo pol 5' (DRC-2, concentration 40): 20%
% inhibition Apol 40' (DRC-2, concentration 10): 17%
% inhibition Apol 40' (DRC-2, concentration 20): 20%
% inhibition Apol 40' (DRC-2, concentration 40): 25%
% inhibition ApPOL 90' (DRC-2, concentration 10): 17%
% inhibition ApPOL 90' (DRC-2, concentration 20): 22%
% inhibition ApPOL 90' (DRC-2, concentration 40): 25%
% inhibition apPOL 180' (DRC-2, concentration 5): 8%
% inhibition apPOL 180' (DRC-2, concentration 10): 12%
% inhibition apPOL 180' (DRC-2, concentration 40): 22%
% inhibition Apo pol 5' 2.5 (DRC-2, read at 5', concentration 2.5): 8%
% inhibition Apo pol 5' 5 (DRC-2, read at 5', concentration 5): 12%
% inhibition Apo pol 5' 10 (DRC-2, read at 5', concentration 10): 13%
% inhibition Apo pol 5' 20 (DRC-2, read at 5', concentration 20): 17%
% inhibition Apo pol 5' 40 (DRC-2, read at 5', concentration 40): 20%
% inhibition Apo pol 5' 80 (DRC-2, read at 5', concentration 80): 36%
% inhibition Apol 40' 2.5 (DRC-2, read at 40', concentration 2.5): 6.51%
% inhibition Apol 40' 5 (DRC-2, read at 40', concentration 5): 15%
% inhibition Apol 40' 10 (DRC-2, read at 40', concentration 10): 17%
% inhibition Apol 40' 20 (DRC-2, read at 40', concentration 20): 20%
% inhibition Apol 40' 40 (DRC-2, read at 40', concentration 40): 25%
% inhibition Apol 40' 80 (DRC-2, read at 40', concentration 80): 47%
% inhibition ApPOL 90' 2.5 (DRC-2, read at 90', concentration 2.5): 4.24%
% inhibition ApPOL 90' 5 (DRC-2, read at 90', concentration 5): 14%
% inhibition ApPOL 90' 10 (DRC-2, read at 90', concentration 10): 17%
% inhibition ApPOL 90' 20 (DRC-2, read at 90', concentration 20): 22%
% inhibition ApPOL 90' 40 (DRC-2, read at 90', concentration 40): 25%
% inhibition ApPOL 90' 80 (DRC-2, read at 90', concentration 80): 51%
% inhibition apPOL 180' 2.5 (DRC-2, concentration 2.5): -0.201%
% inhibition apPOL 180' 5 (DRC-2, concentration 5): 8%
% inhibition apPOL 180' 10 (DRC-2, concentration 10): 12%
% inhibition apPOL 180' 20 (DRC-2, concentration 20): 18%
% inhibition apPOL 180' 40 (DRC-2, concentration 40): 22%
% inhibition apPOL 180' 80 (DRC-2, concentration 80): 52%

COc1ccc(C(=O)N2CCc3c(nc4cc(-c5ccccc5Cl)[nH]n4c3=O)C2)cn1 [Molecule 26, COc1ccc(cn1)C(=O)N1CCc2c(C1)nc1n(c2=O)[nH]c(c1)c1ccccc1Cl]
DNA Pol ('DNA Pol' of the 186 hits list (primary screen value)): 36
DNA Pol (DNA Pol (primary screen value)): 36
% inhibition Apo pol 10' (DRC-1, concentration 2.5): 0.687%
% inhibition Apo pol 10' (DRC-1, concentration 5): 20%
% inhibition Apo pol 10' (DRC-1, concentration 10): 48%
% inhibition Apo pol 10' (DRC-1, concentration 20): 85%
% inhibition Apo pol 10' (DRC-1, concentration 40): 91%
% inhibition Apo pol 10' (DRC-1, concentration 80): 87%
% inhibition Apol 90' (DRC-1, concentration 2.5): -2.83%
% inhibition Apol 90' (DRC-1, concentration 5): 11%
% inhibition Apol 90' (DRC-1, concentration 10): 33%
% inhibition Apol 90' (DRC-1, concentration 20): 74%
% inhibition Apol 90' (DRC-1, concentration 40): 82%
% inhibition Apol 90' (DRC-1, concentration 80): 82%
% inhibition apPOL 180' (DRC-1, concentration 2.5): -5.33%
% inhibition apPOL 180' (DRC-1, concentration 5): 3.47%
% inhibition apPOL 180' (DRC-1, concentration 10): 20%
% inhibition apPOL 180' (DRC-1, concentration 20): 60%
% inhibition apPOL 180' (DRC-1, concentration 40): 70%
% inhibition apPOL 180' (DRC-1, concentration 80): 71%
% inhibition Apo pol 5' (DRC-2, concentration 2.5): 7%
% inhibition Apo pol 5' (DRC-2, concentration 5): 7%
% inhibition Apo pol 5' (DRC-2, concentration 10): 28%
% inhibition Apo pol 5' (DRC-2, concentration 20): 47%
% inhibition Apo pol 5' (DRC-2, concentration 40): 54%
% inhibition Apo pol 5' (DRC-2, concentration 80): 47%
% inhibition Apol 40' (DRC-2, concentration 2.5): 6.48%
% inhibition Apol 40' (DRC-2, concentration 5): 6.59%
% inhibition Apol 40' (DRC-2, concentration 10): 30%
% inhibition Apol 40' (DRC-2, concentration 20): 56%
% inhibition Apol 40' (DRC-2, concentration 40): 64%
% inhibition Apol 40' (DRC-2, concentration 80): 62%
% inhibition ApPOL 90' (DRC-2, concentration 2.5): 6%
% inhibition ApPOL 90' (DRC-2, concentration 5): 4.56%
% inhibition ApPOL 90' (DRC-2, concentration 10): 28%
% inhibition ApPOL 90' (DRC-2, concentration 20): 56%
% inhibition ApPOL 90' (DRC-2, concentration 40): 63%
% inhibition ApPOL 90' (DRC-2, concentration 80): 63%
% inhibition apPOL 180' (DRC-2, concentration 2.5): 3.22%
% inhibition apPOL 180' (DRC-2, concentration 5): 3%
% inhibition apPOL 180' (DRC-2, concentration 10): 20%
% inhibition apPOL 180' (DRC-2, concentration 20): 48%
% inhibition apPOL 180' (DRC-2, concentration 40): 55%
% inhibition apPOL 180' (DRC-2, concentration 80): 57%
% inhibition Apo pol 10' (first dose-response set, concentration 5): 20%
% inhibition Apo pol 10' [1]: 48%
% inhibition Apol 90' (first dose-response set, concentration 40): 82%
% inhibition Apol 90' (first dose-response set, concentration 80): 82%
% inhibition apPOL 180' [1]: 20%
